In US11542255B2, “Sulfonylureas and sulfonylthioureas as NLRP3 inhibitors” (Inflazome Limited, priority 2017, dated 2023) one finds IC50 data, which are given here for 12 molecules.

A word on the IC50: it is the concentration that inhibits the measured activity by half.

Where a name gives a salt, the structure may show the parent alone.

NLRP3, sequence (Q96P20 whole entry): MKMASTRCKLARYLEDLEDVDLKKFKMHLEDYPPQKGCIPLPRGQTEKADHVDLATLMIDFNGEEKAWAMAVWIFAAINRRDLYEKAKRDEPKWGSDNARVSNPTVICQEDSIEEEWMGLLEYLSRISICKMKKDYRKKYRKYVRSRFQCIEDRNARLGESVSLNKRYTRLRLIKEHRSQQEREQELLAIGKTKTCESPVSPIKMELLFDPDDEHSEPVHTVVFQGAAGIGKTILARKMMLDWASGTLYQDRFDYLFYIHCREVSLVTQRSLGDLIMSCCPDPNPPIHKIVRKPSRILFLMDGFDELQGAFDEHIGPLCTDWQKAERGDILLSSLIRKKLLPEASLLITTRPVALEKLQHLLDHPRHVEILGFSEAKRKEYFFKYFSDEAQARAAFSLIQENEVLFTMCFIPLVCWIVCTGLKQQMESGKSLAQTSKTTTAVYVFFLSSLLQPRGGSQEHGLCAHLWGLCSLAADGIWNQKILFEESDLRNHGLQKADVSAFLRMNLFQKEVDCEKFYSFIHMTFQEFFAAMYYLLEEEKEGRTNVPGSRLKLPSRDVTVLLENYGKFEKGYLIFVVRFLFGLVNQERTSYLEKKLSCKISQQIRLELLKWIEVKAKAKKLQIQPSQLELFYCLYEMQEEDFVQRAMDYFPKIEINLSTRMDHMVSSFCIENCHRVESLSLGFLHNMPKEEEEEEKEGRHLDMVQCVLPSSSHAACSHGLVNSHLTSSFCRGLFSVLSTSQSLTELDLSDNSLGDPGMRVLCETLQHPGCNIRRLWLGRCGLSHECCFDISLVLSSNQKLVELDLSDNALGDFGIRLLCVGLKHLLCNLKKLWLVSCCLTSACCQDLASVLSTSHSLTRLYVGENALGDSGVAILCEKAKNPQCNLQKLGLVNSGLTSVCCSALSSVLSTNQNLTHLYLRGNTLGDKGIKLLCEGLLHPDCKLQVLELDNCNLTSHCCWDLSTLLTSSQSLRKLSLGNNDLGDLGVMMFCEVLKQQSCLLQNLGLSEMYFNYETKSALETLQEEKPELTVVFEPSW

This assay deals with NLRP3 (Homo sapiens, UniProt Q96P20). Description: THP-1 cells pyroptosis assay (LPS + nigericin, resazurin readout). The format is cell-based. The arrangement: Seed THP-1 cells (25,000 cells/well) containing 1.0 μg/ml LPS in 40 μl of RPMI medium; host or cells: THP-1 cells. To be noted: NLRP3 inhibitory activity, 1.0 μg/ml LPS, 5 μM nigericin. The protocol:
THP-1 cells (ATCC #TIB-202) were grown in RPMI containing L-glutamine (Gibco #11835) supplemented with 1 mM sodium pyruvate (Sigma #S8636) and penicillin (100 units/ml)/streptomycin (0.1 mg/ml) (Sigma #P4333) in 10% Fetal Bovine Serum (FBS) (Sigma #F0804). The cells were routinely passaged and grown to confluency (˜10^6 cells/ml). On the day of the experiment, THP-1 cells were harvested and resuspended into RPMI medium (without FBS). The cells were then counted and viability (>90%) checked by Trypan blue (Sigma #T8154). Appropriate dilutions were made to give a concentration of 625,000 cells/ml. To this diluted cell solution was added LPS (Sigma #L4524) to give a […] Final Assay Concentration (FAC). 40 μl of the final preparation was aliquoted into each well of a 96-well plate. The plate thus prepared was used for compound screening.
The following method step-by-step assay was followed for compound screening. • 1. Seed THP-1 cells (25,000 cells/well) containing 1.0 μg/ml LPS in 40 μl of RPMI medium (without FBS) in 96-well, black walled, clear bottom cell culture plates coated with poly-D-lysine (VWR #734-0317) • 2. Add 5 μl compound (8 points half-log dilution, with 10 μM top dose) or vehicle (DMSO 0.1% FAC) to the appropriate wells • 3. Incubate for 3 hrs at 37° C. in 5% CO2 • 4. Add 5 μl nigericin (Sigma #N7143) (FAC 5 μM) to all wells • 5. Incubate for 1 hr at 37° C. and 5% CO2 • 6. At the end of the incubation period, spin plates at 300×g for 3 mins and remove supernatant • 7. Then add 50 μl of resazurin (Sigma #R7017) (FAC 100 μM resazurin in RPMI medium without FBS) and incubate plates for a further 1-2 hrs at 37° C. and 5% CO2 • 8. Plates were read in an Envision reader at Ex 560 nm and Em 590 nm • 9. IC50 data is fitted to a non-linear regression equation (log inhibitor vs response-variable slope 4-parameters)
Background: Alamar Blue is a resazurin reagent that responds to reducing activity.
Consider `CNCCn1nc(S(=O)(=O)NC(=O)Nc2c3c(cc4c2CCC4)CCC3)cc1C(=O)O` [Example 2, 3-(N-((1,2,3,5,6,7-Hexahydro-s-indacen-4-yl)carbamoyl)sulfamoyl)-1-(2-(methylamino)ethyl)-1H-pyrazole-5-carboxylic Acid], for which the IC50 is 2560 to 10000 nM.

With `CN1CC(N(C)Cc2cc(S(=O)(=O)NC(=O)Nc3c4c(cc5c3CCC5)CCC4)nn2C)C1` [Example 8, N-((1,2,3,5,6,7-Hexahydro-s-indacen-4-yl)carbamoyl)-1-methyl-5-((methyl(1-methylazetidin-3-yl)amino)methyl)-1H-pyrazole-3-sulfonamide, Sodium Salt], the IC50 lay within 160 to 640 nM.

For `CC(C)c1cc(F)cc(C(C)C)c1NC(=O)NS(=O)(=O)c1cc(CN(C)C2CN(C)C2)n(C)n1` [Example 9, N-((4-Fluoro-2,6-diisopropylphenyl)carbamoyl)-1-methyl-5-((methyl(1-methylazetidin-3-yl)amino)methyl)-1H-pyrazole-3-sulfonamide, Sodium Salt], the IC50 lay within 2560 to 10000 nM. To `CCn1nc(S(=O)(=O)NC(=O)Nc2c(Br)ccc3c2CCC3)cc1CN(C)C` [Example 16, N-((5-Bromo-2,3-dihydro-1H-inden-4-yl)carbamoyl)-5-((dimethylamino)methyl)-1-ethyl-1H-pyrazole-3-sulfonamide] belongs 640 to 2560 nM; to `CC(C)n1nc(S(=O)(=O)[N-]C(=O)Nc2c3c(cc4c2CCC4)CCC3)cc1C(C)[N+](C)(C)C` (stereo not drawn) [Example 18, ((1,2,3,5,6,7-Hexahydro-s-indacen-4-yl)carbamoyl)((1-isopropyl-5-(1-(trimethylammonio)ethyl)-1H-pyrazol-3-yl)sulfonyl)amide], 640 to 2560 nM.

As to `CC(c1cc(S(=O)(=O)[N-]C(=O)Nc2c3c(cc4c2CCC4)CCC3)nn1C)[N+](C)(C)C` (stereo not drawn) [Example 19, ((1,2,3,5,6,7-Hexahydro-s-indacen-4-yl)carbamoyl)((1-methyl-5-(1-(trimethylammonio)ethyl)-1H-pyrazol-3-yl)sulfonyl)amide], the IC50 was in the range of 640 to 2560 nM. Turning to `CC(C)c1cc(F)cc(-c2ccnc(C(N)=O)c2)c1NC(=O)NS(=O)(=O)c1cc(CN(C)C)n(C)n1` [Example 28, 4-(2-(3-((5-((Dimethylamino)methyl)-1-methyl-1H-pyrazol-3-yl)sulfonyl)ureido)-5-fluoro-3-isopropylphenyl)picolinamide], the IC50 lay in the range of 640 to 2560 nM. With `CC(C)c1cc(F)cc(-c2cncnc2)c1NC(=O)NS(=O)(=O)c1cc(CN(C)C)n(C(C)C)n1` [Example 42, 5-((Dimethylamino)methyl)-N-((4-fluoro-2-isopropyl-6-(pyrimidin-5-yl)phenyl)carbamoyl)-1-isopropyl-1H-pyrazole-3-sulfonamide], the IC50 was in the range of 640 to 2560 nM. Consider `CC(C)c1cc(F)cc(-c2cncnc2)c1NC(=O)NS(=O)(=O)c1cc(CN(C)C)n(C)n1` [Example 43, 5-((Dimethylamino)methyl)-N-((4-fluoro-2-isopropyl-6-(pyrimidin-5-yl)phenyl)carbamoyl)-1-methyl-1H-pyrazole-3-sulfonamide], for which the IC50 was in the range of 640 to 2560 nM.

Take `CC(C)c1cc(F)cc(C(C)C)c1NC(=O)NS(=O)(=O)c1cc(CN(C)C)n(C(C)C)n1` [Example 61, 5-((Dimethylamino)methyl)-N-((4-fluoro-2,6-diisopropylphenyl)carbamoyl)-1-isopropyl-1H-pyrazole-3-sulfonamide]: the half-inhibitory concentration (IC50) lay within 160 to 640 nM. To `CN(Cc1cc(S(=O)(=O)NC(=O)Nc2c3c(cc4c2CCC4)CCC3)nn1C)C1CC1` [Example 85, 5-((Cyclopropyl(methyl)amino)methyl)-N-((1,2,3,5,6,7-hexahydro-s-indacen-4-yl)carbamoyl)-1-methyl-1H-pyrazole-3-sulfonamide, Sodium Salt] belongs 160 to 640 nM; to `CC(C)c1cc(F)cc(C(C)C)c1NC(=O)NS(=O)(=O)c1cc(CN(C)C2CC2)n(C)n1` [Example 87, 5-((Cyclopropyl(methyl)amino)methyl)-N-((4-fluoro-2,6-diisopropylphenyl)carbamoyl)-1-methyl-1H-pyrazole-3-sulfonamide, sodium Salt], 640 to 2560 nM.
